Measurements from ChEMBL document CHEMBL2417473, “The importance of hydrogen bonding and aromatic stacking to the affinity and efficacy of cannabinoid receptor CB2 antagonist, 5-(4-chloro-3-methylphenyl)-1-[(4-methylphenyl)methyl]-N-[(1S,2S,4R)-1,3,3-trimethylbicyclo[2.2.1]hept-2-yl]-1H-pyrazole-3-carboxamide (SR144528)” (J Med Chem, 2013).

Target: Cannabinoid receptor 2 (Homo sapiens, UniProt P34972)
Assay: Displacement of [3H]CP-55,940 from human CB2 receptor after 1 hr by competitive binding assay

Chain of Cannabinoid receptor 2 (P34972 whole entry): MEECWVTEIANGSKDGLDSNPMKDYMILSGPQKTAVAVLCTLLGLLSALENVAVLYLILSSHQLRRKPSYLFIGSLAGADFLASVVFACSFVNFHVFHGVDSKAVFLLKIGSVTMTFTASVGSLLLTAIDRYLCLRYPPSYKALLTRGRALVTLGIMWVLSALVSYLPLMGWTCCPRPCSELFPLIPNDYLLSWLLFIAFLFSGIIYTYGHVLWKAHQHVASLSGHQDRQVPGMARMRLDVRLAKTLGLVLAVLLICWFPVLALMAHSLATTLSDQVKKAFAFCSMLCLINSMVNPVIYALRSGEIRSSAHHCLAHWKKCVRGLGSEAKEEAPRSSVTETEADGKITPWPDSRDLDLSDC

Structure (SMILES) | Ki [µM]
Cc1ccc(Cn2cc(/C=C/[C@@H]3C(C)(C)[C@@H]4CC[C@@]3(C)C4)cc2-c2ccc(Cl)c(C)c2)cc1 | 1.22
Cc1ccc(Cn2nc(C(=O)N[C@@H]3C[C@@H]4CC[C@@]3(C)C4(C)C)cc2-c2ccc(Cl)c(C)c2)cc1 | 0.0291
Cc1cc(-c2cc(C(=O)N[C@@H]3C(C)(C)[C@@H]4CC[C@@]3(C)C4)nn2-c2ccccc2)ccc1Cl | 0.0942
Cc1ccc(Cn2nc(/C=C/[C@@H]3C(C)(C)[C@@H]4CC[C@@]3(C)C4)cc2-c2ccc(Cl)c(C)c2)cc1 (relative stereo) | 0.527
Cc1ccc(Cn2cc(C(=O)N[C@@H]3C(C)(C)[C@@H]4CC[C@@]3(C)C4)cc2-c2ccc(Cl)c(C)c2)cc1 (relative stereo) | 0.0153
